Data: patent US20170121683A1, “ARYL HYDROCARBON RECEPTOR DISRUPTION AND ENHANCEMENT” (priority 2015, published 2017)

Assays:
[1] = tested on: H9 hESCs; test: Hemato-endothelial differentiation of H9 hESCs as spin-EBs, flow cytometry (Example 1); type: cell-based, human
Method: H9 human embryonic stem cells (H9 hESCs; University of Wisconsin, Madison, Wis.) were adapted to passage as single cells using TrypLE (Invitrogen, Carlsbad, Calif.) as previously described (Ng et al. Nat. Protoc. 3, 768-76 (2008)). H9 hESCs were maintained on irradiated mouse embryonic fibroblasts in ES cell growth medium including Dulbecco's modified Eagle's medium (DMEM)/Ham's F-12 medium (F12) (Invitrogen) supplemented with 15% Knockout Serum Replacer (Invitrogen), 1 mM L-glutamine (Invitrogen), 0.1 mM β-mercaptoethanol (Sigma Aldrich, St. Louis, Mo.), 1% minimum essential medium nonessential amino acids (Invitrogen), 4 ng/mL basic fibroblast growth factor (R&D Systems Inc., Minneapolis, Minn.), and 1% penicillin-streptomycin (Invitrogen) incubated at 37° C. in a humidified atmosphere containing 5% CO2. Single-cell adapted hESCs were subjected to hemato-endothelial differentiation as spin embryoid bodies (“spin-EBs”), also previously described (Ng et al. Nat. Protoc. 3, 768-76 (2008); Knorr et al. Stem Cells Dev. 22, 1861-9 (2013); Ferrell et al., Stem Cells 33(4), 1130-41 (2015)). In brief, TrypLE-adapted hESCs were harvested are resuspended in bovine serum albumin polyvinyl alcohol essential lipids (BPEL) media (Ferrell et al. Stem Cells 33(4):1130-41 (2015)) supplemented with 20 ng/mL bone morphogenic protein-4 (R&D Systems), 20 ng/mL vascular endothelial growth factor (R&D Systems), and 40 ng/mL stem cell factor (R&D Systems) (hemato-endothelial induction media or Stage I mesodermal induction media). Cells were plated in a low-attachment 96-well plate (Thermo Scientific, Waltham, Mass.) at 3,000 cells per well and centrifuged at 1500 rpm for 5 minutes to create three-dimensionalized embryoid body aggregates. Following 6 days of incubation, EBs were transferred with a multichannel micropipette to 0.1% gelatinized 24-well plates (8 EBs/well) with BEL media (BPEL media minus polyvinyl alcohol) supplemented with 40 ng/mL vascular endothelial growth factor, 40 ng/mL stem cell factor, 30 ng/mL Interleukin-3 (Peprotech, Rocky Hill, N.J.), 30 ng/mL Interleukin-6 (Peprotech), and 30 ng/mL thrombopoietin (Peprotech) ([…] or Stage II media) to induce hemato-endothelial-specific differentiation. Depending on the treatment group, Stage II media was also supplemented with DMSO, 1 μM StemReginin-1 (SR-1) (Cellagen Technology, San Diego, Calif.) in DMSO or 10 nM 2,3,7,8-tetrachlorodibenzo-p-dioxin (TCDD) (Sigma Aldrich) in DMSO. EBs were cultured until the indicated time points and one-half media changes with fresh Stage II media and drugs were performed every three days. For EB harvesting, the media containing the non-adherent differentiated hematopoietic cells was set aside while the adherent cells were treated with 0.05% trypsin (Invitrogen) containing 2% chicken serum (Sigma Aldrich) for 8-10 minutes in a 37° C. water bath. Both non-adherent and adherent fractions were combined for subsequent analyses.
(§1) Harvested cells were incubated with PE-Cy7 CD34 (BD Biosciences, San Jose, Calif.) in conjunction with APC CD31, APC CD41a, APC CD43, or APC CD45 for 30 minutes at 4° C. in FACS buffer (DPBS containing 2% fetal bovine serum and 0.1% sodium azide). Dead cells were excluded using Sytox Blue dye (Invitrogen) prior to analysis. Cells were analyzed using an LSRII flow cytometer (BD Biosciences) and data were analyzed using FlowJo software (TreeStart, Ashland, Oreg.).

[2] = tested on: hESCs; test: Viability of hESC-derived cells, Sytox Blue Live/Dead Stain; type: cell-based, human; conditions: 1 μM SR-1 or 10 nM TCDD
Method: FIG. 8A. Non-adherent hematopoietic progenitor cells derived from hESCs were harvested at Day 6+3, Day 6+5, Day 6+7, and Day 6+9 time points and probed for gene expression by quantitative real-time PCR (qPCR). For each gene, Ct values were normalized to GAPDH at each time point and data is presented as relative fold-change as compared to undifferentiated hESCs. […] FIG. 8B Undifferentiated hESCs were cultured in the presence of 1 μM SR-1, 10 nM TCDD, or DMSO vehicle control for 96 hours and probed for gene expression by qPCR. For each gene, Ct values were normalized to GAPDH at each time point and data is presented as relative fold-change as compared to DMSO treated hESCs. n=3, error bars represent SEM, *p<0.05 assessed by two-way ANOVA+Tukey-Kramer multiple comparisons post-hoc test. FIG. 8C. Both adherent and non-adherent cell fractions treated with either DMSO, SR-1, or TCDD were harvested at Day 6+3, Day 6+6, and Day 6+9 and probed for viability with Sytox Blue Live/Dead Stain. […]
as §1, with “Dead cells were excluded using Sytox Blue dye (Invitrogen) prior to analysis.” left out

Compound | CD34+CD31+ hemato-endothelial cells ([1]; Day 9, 1 μM SR-1, n=3) | expansion of CD34+CD45+ hematopoietic progenitor cells relative to DMSO-treated controls ([1]; Day 12, 1 μM SR-1) | CD34+CD45+ hematopoietic progenitor cells ([1]; Day 12, 1 μM SR-1, n=3) | cytotoxic effects on hESCs [2] | CD34+CD45+ progenitor cells ([1]; Day 15, 10 nM TCDD, n=3) | CD34−CD43+ differentiated hematopoietic cells ([1]; Day 15, 10 nM TCDD, n=3) | CD34−CD45+ differentiated hematopoietic cells ([1]; Day 15, 10 nM TCDD, n=3)
CC(C)n1cnc2c(NCCc3ccc(O)cc3)nc(-c3csc4ccccc34)nc21 [SR-1, StemReginin-1] | 17.63%±1.25 | approximately two-fold expansion | 16.35%±4.05 | no significant cytotoxic effects |  |  | 
Clc1cc2c(cc1Cl)Oc1cc(Cl)c(Cl)cc1O2 [TCDD, 2,3,7,8-tetrachlorodibenzo-p-dioxin] |  |  |  | no significant cytotoxic effects | 3.99%±0.80 | 84.5%±2.78 | 81.75%±1.75
